# How the values were obtained:
# Type in all cases: biochemical
# TrkA = TrkA (Homo sapiens, UniProt P04629); experiment: Kinase profiling TrkA; settings: for residual kinase activity, TrkA: 100 micromolar inhibitor concentration, 100 is no change
# From the text: (§1) Any value less that 25 is considered to be highly significant inhibition.
# BTK = BTK (Homo sapiens, UniProt Q06187); experiment: Kinase profiling BTK; settings: for residual kinase activity, BTK: 100 micromolar inhibitor concentration, 100 is no change
# Sequence of BTK (Q06187 whole entry, species assumed): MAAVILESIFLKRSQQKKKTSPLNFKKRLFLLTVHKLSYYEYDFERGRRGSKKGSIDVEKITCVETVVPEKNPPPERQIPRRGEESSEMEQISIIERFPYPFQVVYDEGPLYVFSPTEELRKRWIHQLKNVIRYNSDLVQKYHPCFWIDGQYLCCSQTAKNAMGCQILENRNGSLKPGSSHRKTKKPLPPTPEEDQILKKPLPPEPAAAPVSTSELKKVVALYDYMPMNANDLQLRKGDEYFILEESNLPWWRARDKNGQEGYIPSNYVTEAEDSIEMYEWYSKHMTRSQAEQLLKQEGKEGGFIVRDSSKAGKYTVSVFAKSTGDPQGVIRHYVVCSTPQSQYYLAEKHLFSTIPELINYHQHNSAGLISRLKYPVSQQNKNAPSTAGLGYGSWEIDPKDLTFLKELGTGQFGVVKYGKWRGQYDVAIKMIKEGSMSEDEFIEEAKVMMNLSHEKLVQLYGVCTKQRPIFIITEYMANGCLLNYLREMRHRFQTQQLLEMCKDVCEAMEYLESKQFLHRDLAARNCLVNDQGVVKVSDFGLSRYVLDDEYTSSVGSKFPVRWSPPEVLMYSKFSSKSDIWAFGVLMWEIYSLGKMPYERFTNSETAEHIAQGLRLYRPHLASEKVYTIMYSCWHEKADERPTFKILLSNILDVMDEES
# From the text: as §1
# MARK3 = MARK3 (Homo sapiens, UniProt P27448); experiment: Kinase profiling MARK3; settings: for residual kinase activity, MARK3: 100 micromolar inhibitor concentration, 100 is no change
# From the text: as §1
# MKK1 = MKK1 (Homo sapiens, UniProt Q02750); experiment: Kinase profiling MKK1; settings: for residual kinase activity, MKK1: 100 micromolar inhibitor concentration, 100 is no change
# Sequence of MKK1 (Q02750 whole entry, species assumed): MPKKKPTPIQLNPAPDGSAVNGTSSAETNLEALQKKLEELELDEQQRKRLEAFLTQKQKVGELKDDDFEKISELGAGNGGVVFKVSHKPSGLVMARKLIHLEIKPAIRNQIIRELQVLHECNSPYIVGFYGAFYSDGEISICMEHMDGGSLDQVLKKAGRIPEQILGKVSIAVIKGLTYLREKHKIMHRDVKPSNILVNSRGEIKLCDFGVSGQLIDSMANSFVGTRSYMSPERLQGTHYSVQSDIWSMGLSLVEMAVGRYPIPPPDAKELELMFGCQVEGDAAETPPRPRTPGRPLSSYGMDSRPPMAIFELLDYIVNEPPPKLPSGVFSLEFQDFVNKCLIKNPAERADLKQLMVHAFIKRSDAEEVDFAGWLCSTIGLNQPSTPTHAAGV
# From the text: as §1
# Src = Src (Homo sapiens, UniProt P12931); experiment: Kinase profiling Src; settings: for residual kinase activity, Src: 100 micromolar inhibitor concentration, 100 is no change
# Sequence of Src (P12931 whole entry, species assumed): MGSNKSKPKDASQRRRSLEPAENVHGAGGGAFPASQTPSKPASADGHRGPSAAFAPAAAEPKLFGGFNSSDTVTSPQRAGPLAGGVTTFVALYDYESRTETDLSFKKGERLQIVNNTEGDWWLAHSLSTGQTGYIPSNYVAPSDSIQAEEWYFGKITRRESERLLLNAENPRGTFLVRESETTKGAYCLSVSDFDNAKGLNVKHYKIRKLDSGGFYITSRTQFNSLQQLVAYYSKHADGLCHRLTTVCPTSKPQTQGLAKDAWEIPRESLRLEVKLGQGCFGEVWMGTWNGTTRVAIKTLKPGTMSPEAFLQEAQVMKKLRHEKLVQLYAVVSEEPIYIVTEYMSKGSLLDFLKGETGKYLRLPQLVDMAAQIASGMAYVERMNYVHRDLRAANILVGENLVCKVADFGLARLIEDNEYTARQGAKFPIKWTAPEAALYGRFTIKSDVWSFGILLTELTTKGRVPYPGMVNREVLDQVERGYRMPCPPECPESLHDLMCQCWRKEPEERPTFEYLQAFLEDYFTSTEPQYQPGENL
# From the text: as §1
# PDK1 = target: T1, PDK1 (Homo sapiens, UniProt O15530); experiment: Kinase profiling PDK1; settings: for residual kinase activity, PDK1: 100 micromolar inhibitor concentration, 100 is no change
# T1 sequence (O15530 1-556): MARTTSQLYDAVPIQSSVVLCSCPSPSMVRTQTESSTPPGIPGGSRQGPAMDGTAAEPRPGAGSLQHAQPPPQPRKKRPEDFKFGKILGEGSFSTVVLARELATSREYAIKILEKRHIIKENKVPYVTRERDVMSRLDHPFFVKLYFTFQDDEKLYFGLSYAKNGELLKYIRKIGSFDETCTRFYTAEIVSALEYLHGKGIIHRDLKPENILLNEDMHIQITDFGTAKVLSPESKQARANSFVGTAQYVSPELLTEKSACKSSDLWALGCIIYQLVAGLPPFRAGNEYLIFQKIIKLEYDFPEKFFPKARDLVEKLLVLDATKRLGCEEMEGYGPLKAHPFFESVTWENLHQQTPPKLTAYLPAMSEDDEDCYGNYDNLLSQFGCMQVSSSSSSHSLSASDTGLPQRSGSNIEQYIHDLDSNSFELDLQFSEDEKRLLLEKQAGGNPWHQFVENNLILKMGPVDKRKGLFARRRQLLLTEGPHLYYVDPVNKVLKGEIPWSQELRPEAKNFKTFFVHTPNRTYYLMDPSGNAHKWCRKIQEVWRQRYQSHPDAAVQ
# From the text: as §1
# p38a MAPK = p38a MAPK (Homo sapiens, UniProt Q16539); experiment: Kinase profiling p38a MAPK; settings: for residual kinase activity, p38a MAPK: 100 micromolar inhibitor concentration, 100 is no change
# Sequence of p38a MAPK (Q16539 whole entry): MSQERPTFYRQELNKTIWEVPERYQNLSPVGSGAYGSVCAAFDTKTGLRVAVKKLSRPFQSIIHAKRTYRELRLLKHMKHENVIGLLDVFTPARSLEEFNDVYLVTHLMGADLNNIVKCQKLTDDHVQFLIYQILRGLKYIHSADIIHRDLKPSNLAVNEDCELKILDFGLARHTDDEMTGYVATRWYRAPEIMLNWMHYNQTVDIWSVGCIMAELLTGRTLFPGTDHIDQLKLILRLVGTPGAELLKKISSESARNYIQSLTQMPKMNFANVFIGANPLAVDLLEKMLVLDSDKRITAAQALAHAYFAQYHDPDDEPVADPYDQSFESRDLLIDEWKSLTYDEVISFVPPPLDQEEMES
# From the text: as §1
# PKBa = PKBa (Homo sapiens, UniProt P31749); experiment: Kinase profiling PKBa; settings: for residual kinase activity, PKBa: 100 micromolar inhibitor concentration, 100 is no change
# Sequence of PKBa (P31749 whole entry): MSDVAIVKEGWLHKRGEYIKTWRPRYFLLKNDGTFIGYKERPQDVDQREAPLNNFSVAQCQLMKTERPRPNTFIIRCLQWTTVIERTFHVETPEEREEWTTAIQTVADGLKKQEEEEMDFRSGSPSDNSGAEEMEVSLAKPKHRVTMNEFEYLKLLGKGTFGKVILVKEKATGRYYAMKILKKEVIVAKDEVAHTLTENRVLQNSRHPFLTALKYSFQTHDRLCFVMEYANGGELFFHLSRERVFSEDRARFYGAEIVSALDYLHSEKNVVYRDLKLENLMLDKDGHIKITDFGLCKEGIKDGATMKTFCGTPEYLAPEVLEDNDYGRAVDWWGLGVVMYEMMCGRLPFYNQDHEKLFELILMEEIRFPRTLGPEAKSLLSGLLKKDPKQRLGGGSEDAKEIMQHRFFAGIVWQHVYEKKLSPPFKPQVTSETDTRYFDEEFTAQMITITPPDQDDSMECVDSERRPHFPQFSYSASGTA
# From the text: as §1
# VEG-FR = experiment: Kinase profiling VEG-FR; settings: 100 micromolar inhibitor concentration; 100 is no change
# From the text: as §1
# IRAK4 = target: T2, IRAK4 (Homo sapiens, UniProt Q9NWZ3); experiment: Kinase profiling IRAK4; settings: for residual kinase activity, IRAK4: 100 micromolar inhibitor concentration, 100 is no change
# T2 sequence (Q9NWZ3 1-460): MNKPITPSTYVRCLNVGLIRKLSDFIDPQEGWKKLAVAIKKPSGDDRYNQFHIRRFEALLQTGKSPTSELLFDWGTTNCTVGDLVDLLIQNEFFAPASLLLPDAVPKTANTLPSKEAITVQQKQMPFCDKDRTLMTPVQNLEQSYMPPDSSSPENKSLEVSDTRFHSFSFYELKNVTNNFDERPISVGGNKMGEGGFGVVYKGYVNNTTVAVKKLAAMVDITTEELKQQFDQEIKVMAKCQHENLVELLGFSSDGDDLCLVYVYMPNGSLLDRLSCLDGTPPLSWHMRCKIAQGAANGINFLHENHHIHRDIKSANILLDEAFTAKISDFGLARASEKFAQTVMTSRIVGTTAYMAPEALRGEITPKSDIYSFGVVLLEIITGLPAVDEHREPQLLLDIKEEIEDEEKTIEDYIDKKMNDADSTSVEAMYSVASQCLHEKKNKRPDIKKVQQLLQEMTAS
# From the text: as §1
# EF2K = EF2K (Homo sapiens, UniProt O00418); experiment: Kinase profiling EF2K; settings: for residual kinase activity, EF2K: 100 micromolar inhibitor concentration, 100 is no change
# From the text: as §1
# RIPK2 = RIPK2 (Homo sapiens, UniProt O43353); experiment: Kinase profiling RIPK2; settings: for residual kinase activity, RIPK2: 100 micromolar inhibitor concentration, 100 is no change
# Sequence of RIPK2 (O43353 whole entry, species assumed): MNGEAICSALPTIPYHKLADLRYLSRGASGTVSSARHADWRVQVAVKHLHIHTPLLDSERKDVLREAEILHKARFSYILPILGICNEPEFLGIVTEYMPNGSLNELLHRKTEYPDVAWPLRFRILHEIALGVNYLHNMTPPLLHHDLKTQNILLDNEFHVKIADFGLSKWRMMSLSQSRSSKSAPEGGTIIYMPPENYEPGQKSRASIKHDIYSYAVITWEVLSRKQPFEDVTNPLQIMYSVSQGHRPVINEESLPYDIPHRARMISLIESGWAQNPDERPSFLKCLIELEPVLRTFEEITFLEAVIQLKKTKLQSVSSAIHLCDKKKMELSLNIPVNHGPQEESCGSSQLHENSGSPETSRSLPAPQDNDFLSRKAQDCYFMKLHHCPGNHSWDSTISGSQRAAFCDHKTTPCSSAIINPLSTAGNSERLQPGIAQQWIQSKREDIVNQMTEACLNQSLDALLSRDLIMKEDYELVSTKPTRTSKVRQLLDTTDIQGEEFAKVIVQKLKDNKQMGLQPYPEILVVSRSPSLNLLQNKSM
# From the text: as §1
# SRPK1 = SRPK1 (Homo sapiens, UniProt Q96SB4); experiment: Kinase profiling SRPK1; settings: for residual kinase activity, SRPK1: 100 micromolar inhibitor concentration, 100 is no change
# Sequence of SRPK1 (Q96SB4 whole entry, species assumed): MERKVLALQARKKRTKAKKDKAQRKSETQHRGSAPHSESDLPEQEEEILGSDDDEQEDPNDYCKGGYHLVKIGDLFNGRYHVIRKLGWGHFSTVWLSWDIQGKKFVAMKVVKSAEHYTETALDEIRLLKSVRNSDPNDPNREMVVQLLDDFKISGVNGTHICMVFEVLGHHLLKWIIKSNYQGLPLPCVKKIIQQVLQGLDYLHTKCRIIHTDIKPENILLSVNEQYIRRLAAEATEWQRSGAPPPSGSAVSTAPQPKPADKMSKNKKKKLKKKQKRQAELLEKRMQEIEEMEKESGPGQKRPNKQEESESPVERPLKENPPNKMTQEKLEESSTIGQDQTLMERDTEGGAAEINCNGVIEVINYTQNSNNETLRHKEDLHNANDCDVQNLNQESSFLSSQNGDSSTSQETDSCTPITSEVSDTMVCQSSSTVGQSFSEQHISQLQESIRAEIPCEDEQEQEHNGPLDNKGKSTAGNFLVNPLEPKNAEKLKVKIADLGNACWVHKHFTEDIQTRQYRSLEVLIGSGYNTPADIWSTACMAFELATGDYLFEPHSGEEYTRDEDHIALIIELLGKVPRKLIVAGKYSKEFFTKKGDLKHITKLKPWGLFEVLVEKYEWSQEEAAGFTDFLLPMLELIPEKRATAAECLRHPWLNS
# From the text: as §1
# PRK2 = PRK2 (Homo sapiens, UniProt Q16513); experiment: Kinase profiling PRK2; settings: for residual kinase activity, PRK2: 100 micromolar inhibitor concentration, 100 is no change
# Sequence of PRK2 (Q16513 whole entry, species assumed): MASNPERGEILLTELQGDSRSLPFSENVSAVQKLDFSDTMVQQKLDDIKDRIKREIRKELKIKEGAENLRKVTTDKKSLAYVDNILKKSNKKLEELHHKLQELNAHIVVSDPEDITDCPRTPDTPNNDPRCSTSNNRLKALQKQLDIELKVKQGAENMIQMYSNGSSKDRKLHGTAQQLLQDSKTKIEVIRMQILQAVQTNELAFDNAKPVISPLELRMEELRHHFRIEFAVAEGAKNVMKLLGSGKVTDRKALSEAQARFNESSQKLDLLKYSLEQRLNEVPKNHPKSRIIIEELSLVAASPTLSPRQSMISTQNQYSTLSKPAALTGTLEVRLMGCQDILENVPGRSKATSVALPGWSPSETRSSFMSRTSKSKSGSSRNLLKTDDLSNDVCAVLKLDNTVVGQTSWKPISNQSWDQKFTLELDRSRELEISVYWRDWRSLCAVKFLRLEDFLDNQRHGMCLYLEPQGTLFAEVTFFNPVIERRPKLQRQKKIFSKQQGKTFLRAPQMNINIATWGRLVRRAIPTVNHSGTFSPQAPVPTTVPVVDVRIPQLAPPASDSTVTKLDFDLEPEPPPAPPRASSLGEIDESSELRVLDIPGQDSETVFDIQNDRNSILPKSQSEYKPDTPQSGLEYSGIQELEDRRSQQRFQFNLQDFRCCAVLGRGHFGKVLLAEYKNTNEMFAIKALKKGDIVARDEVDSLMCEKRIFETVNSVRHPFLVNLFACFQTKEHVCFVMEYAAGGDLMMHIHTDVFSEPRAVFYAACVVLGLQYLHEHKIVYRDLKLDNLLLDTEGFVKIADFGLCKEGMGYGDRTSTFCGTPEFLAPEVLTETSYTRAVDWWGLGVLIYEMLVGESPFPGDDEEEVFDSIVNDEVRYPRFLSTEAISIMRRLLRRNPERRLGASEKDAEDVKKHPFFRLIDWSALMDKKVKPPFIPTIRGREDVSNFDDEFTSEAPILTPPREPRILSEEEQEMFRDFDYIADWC
# From the text: as §1
# PIM1 = PIM1 (Homo sapiens, UniProt P11309); experiment: Kinase profiling PIM1; settings: for residual kinase activity, PIM1: 100 micromolar inhibitor concentration, 100 is no change
# Sequence of PIM1 (P11309 whole entry, species assumed): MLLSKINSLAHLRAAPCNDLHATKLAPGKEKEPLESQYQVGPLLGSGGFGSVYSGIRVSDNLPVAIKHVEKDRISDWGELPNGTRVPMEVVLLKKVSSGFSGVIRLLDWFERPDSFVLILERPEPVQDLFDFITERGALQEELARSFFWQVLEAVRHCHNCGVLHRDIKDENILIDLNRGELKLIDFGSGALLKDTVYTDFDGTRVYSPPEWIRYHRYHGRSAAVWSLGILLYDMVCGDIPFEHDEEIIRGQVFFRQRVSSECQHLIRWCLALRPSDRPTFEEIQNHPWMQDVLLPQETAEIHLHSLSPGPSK
# From the text: as §1
# SGK1 = target: T3, SGK1 (Homo sapiens, UniProt O00141); experiment: Kinase profiling SGK1; settings: for residual kinase activity, SGK1: 100 micromolar inhibitor concentration, 100 is no change
# T3 sequence (O00141 1-431): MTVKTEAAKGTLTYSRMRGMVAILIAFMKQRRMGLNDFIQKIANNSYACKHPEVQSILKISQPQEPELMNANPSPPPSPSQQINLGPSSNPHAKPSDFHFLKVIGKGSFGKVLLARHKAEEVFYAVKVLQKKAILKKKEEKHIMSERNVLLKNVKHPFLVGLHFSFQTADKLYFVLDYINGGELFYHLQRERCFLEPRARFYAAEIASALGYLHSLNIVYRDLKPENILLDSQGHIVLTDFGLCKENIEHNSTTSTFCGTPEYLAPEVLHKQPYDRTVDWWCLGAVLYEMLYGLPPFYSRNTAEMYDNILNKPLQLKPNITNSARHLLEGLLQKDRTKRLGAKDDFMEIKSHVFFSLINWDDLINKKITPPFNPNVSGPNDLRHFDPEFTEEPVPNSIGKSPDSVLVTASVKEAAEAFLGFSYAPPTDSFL
# From the text: as §1
SMILES,"residual kinase activity, TrkA (TrkA)","residual kinase activity, BTK (BTK)","residual kinase activity, MARK3 (MARK3)","residual kinase activity, MKK1 (MKK1)","residual kinase activity, Src (Src)","residual kinase activity, PDK1 (PDK1)","residual kinase activity, p38a MAPK (p38a MAPK)","residual kinase activity, PKBa (PKBa)","residual kinase activity, VEG-FR (VEG-FR)","residual kinase activity, IRAK4 (IRAK4)","residual kinase activity, EF2K (EF2K)","residual kinase activity, RIPK2 (RIPK2)","residual kinase activity, SRPK1 (SRPK1)","residual kinase activity, PRK2 (PRK2)","residual kinase activity, PIM1 (PIM1)","residual kinase activity, SGK1 (SGK1)",other results
O=C(Nc1nc2ccc(F)cc2s1)c1ccccc1 [Compound 03-92],74,73,109,93,74,91,114,99,53,72,134,69,19,95,69,93,
CC(=O)Nc1nc2ccc(F)cc2s1 [Compound 03-94],58,107,96,76,76,87,84,94,18,44,96,38,75,80,40,67,
COc1ccc2sc(NC(=O)c3ccccc3)nc2c1 [Compound 03-95],35,75,106,92,77,89,82,80,65,57,115,40,42,84,19,60,
COc1ccc2nc(NC(=O)c3ccccc3)sc2c1 [Compound 03-98],60,56,72,105,172,101,86,103,37,46,108,34,10,91,76,78,
O=C(Nc1nc2ccc(C(F)(F)F)cc2s1)c1ccccc1 [Compound 03-99],84,79,106,87,87,84,86,91,28,70,99,89,61,85,78,69,
O=C(Nc1nc2cc(O)ccc2s1)c1ccccc1 [Compound 03-102],38,81,63,52,30,74,57,88,11,34,92,24,10,68,14,86,
"COC(=O)c1cccc(C(=O)Nc2nc3ccc(C(F)(F)F)cc3s2)c1 [Compound 03-105, Methyl 3-((6-(trifluoromethyl)benzo[d]thiazol-2-yl)carbamoyl)benzoate]",,,,,,,,,29,,,,,,,,"remaining activity at 100 µM (TrkA; read-out: residual kinase activity, TrkA): 82%; remaining activity at 100 µM (BTK; read-out: residual kinase activity, BTK): 95%; remaining activity at 100 µM (MARK3; read-out: residual kinase activity, MARK3): 103%; remaining activity at 100 µM (MKK1; read-out: residual kinase activity, MKK1): 86%; remaining activity at 100 µM (Src; read-out: residual kinase activity, Src): 165%; remaining activity at 100 µM (PDK1; read-out: residual kinase activity, PDK1): 87%; remaining activity at 100 µM (p38a MAPK; read-out: residual kinase activity, p38a MAPK): 84%; remaining activity at 100 µM (PKBa; read-out: residual kinase activity, PKBa): 92%; remaining activity at 100 µM (IRAK4; read-out: residual kinase activity, IRAK4): 78%; remaining activity at 100 µM (EF2K; read-out: residual kinase activity, EF2K): 108%; remaining activity at 100 µM (RIPK2; read-out: residual kinase activity, RIPK2): 79%; remaining activity at 100 µM (SRPK1; read-out: residual kinase activity, SRPK1): 54%; remaining activity at 100 µM (PRK2; read-out: residual kinase activity, PRK2): 109%; remaining activity at 100 µM (PIM1; read-out: residual kinase activity, PIM1): 72%; remaining activity at 100 µM (SGK1; read-out: residual kinase activity, SGK1): 86%"
